Experiment [1] deals with Candida albicans. The experiment in a line: Antifungal activity against wild-type Candida albicans SC5314 assessed as reduction in filamentous growth. The format is functional, organism-based.
The test system of experiment [2] is Candida albicans. The experiment in a line: Antifungal activity against Candida albicans DSY654 assessed as reduction in filamentous growth. The format is functional, organism-based.
Experiment [3] has as its system Candida albicans. As to the kind of experiment: Antifungal activity against Candida albicans DSY654 assessed as inhibition of yeast to hyphal morphological transition measured at 6 hrs by fluorescent microscopy. The format is functional, organism-based.
Experiment [4] has as its system Candida albicans. As to the kind of experiment: Antifungal activity against Candida albicans DSY654 assessed as reduction in number of adherent fungal cells on human A549 cells after 90 mins by calcofluor White staining based fluorescent microscopy. The format is functional, organism-based.
The test system of experiment [5] is Candida albicans. The experiment in a line: Antifungal activity against Candida albicans DSY654 assessed as inhibition of massive filamentation at 4 to 32 ug/ml. The format is functional, organism-based.
For experiment [6], the system named is Candida albicans. As to the kind of experiment: Antifungal activity against Candida albicans DSY654 assessed as inhibition of biofilm formation incubated for 24 hrs by XTT assay. In kind it is functional, organism-based.
In experiment [7] the test system is Candida albicans. The experiment in a line: Antifungal activity against Candida albicans DSY654 assessed as inhibition of biofilm formation incubated for 24 hrs by fluorescent microscopy. The format is functional, organism-based.
The test system of experiment [8] is Candida albicans. As to the kind of experiment: Downregulation of CDC35 gene expression in Candida albicans DSY654 at 4 ug/ml after 1.5 to 6 hrs by RT-qPCR assay. In kind it is functional, organism-based. A general note: Quantitative PCR measures a nucleic acid by following its amplification.
The test system of experiment [9] is Candida albicans. The experiment in a line: Downregulation of RAS1 gene expression in Candida albicans DSY654 at 4 ug/ml after 1.5 to 6 hrs by RT-qPCR assay. The format is functional, organism-based.
Experiment [10] has as its system Candida albicans. As to the kind of experiment: Upregulation of PDE2 gene expression in Candida albicans DSY654 at 4 ug/ml after 1.5 to 6 hrs by RT-qPCR assay. The format is functional, organism-based.
Experiment [11] relates to Candida albicans. The experiment in a line: Upregulation of NRG1 gene expression in Candida albicans DSY654 at 4 ug/ml after 1.5 to 6 hrs by RT-qPCR assay relative to control. In kind it is functional.
Experiment [12] deals with Candida albicans. The experiment in a line: Downregulation of UME6 gene expression in Candida albicans DSY654 at 4 ug/ml after 1.5 to 6 hrs by RT-qPCR assay. In kind it is functional, organism-based.
The test system of experiment [13] is Candida albicans. As to the kind of experiment: Downregulation of ALS3 gene expression in Candida albicans DSY654 at 4 ug/ml after 1.5 to 6 hrs by RT-qPCR assay. The format is functional, organism-based.
Experiment [14] deals with Candida albicans. The experiment in a line: Downregulation of HWP1 gene expression in Candida albicans DSY654 at 4 ug/ml after 1.5 to 6 hrs by RT-qPCR assay. In kind it is functional, organism-based.
The test system of experiment [15] is Candida albicans. The experiment in a line: Downregulation of ECE1 gene expression in Candida albicans DSY654 at 4 ug/ml after 1.5 to 6 hrs by RT-qPCR assay. The format is functional, organism-based.

Calls of active or inactive are those of the source. The calls are words filed in the database; no cut-off is given here. Where only a bound is given, the exact number is not on record here.

As for `C=C1CC[C@H]2[C@@H](/C=C(\C)[C@H](OC(C)=O)[C@H](OC(C)=O)[C@@H]1OC(C)=O)C2(C)C`, the result in the experiment on Candida albicans [1] was inactive. In addition, the result in the experiment with Candida albicans [2], with Candida albicans [5], in the experiment with Candida albicans [8], with Candida albicans [9], in the experiment with Candida albicans [10] and with Candida albicans [12] was Active. Moreover, the result in the experiment on Candida albicans [13], in the experiment with Candida albicans [14] and in the experiment on Candida albicans [15] was Active. In addition, the Activity result in the experiment with Candida albicans [3], in the experiment with Candida albicans [4], with Candida albicans [6] and with Candida albicans [7] was “Dose-dependent effect” throughout. The “fold change (FC)” value in the experiment with Candida albicans [11] was greater than 10.
In the case of `CC(=O)O[C@H]1OC=C(CO)[C@H]2[C@@H]1[C@@]1(CC[C@H]3[C@@H]2[C@@]3(CO)COC(=O)/C=C/c2ccccc2)CO1`, the outcome in the experiment with Candida albicans [1] was inactive.
Same read-out and setting: the entry for `CC1=C2C[C@]3(C)CC(=O)[C@@](O)(C(C)C)[C@H]3CC[C@H](C)[C@]2(O)CC1=O` is “inactive”; for `CC(=O)O[C@H]1/C(C)=C/[C@@H]2[C@H](C[C@@H](OC(=O)CCc3ccccc3)/C(CO)=C/[C@H]1O)[C@]2(C)CO` it is “inactive”; for `C=C1[C@@H](O)[C@@H]2[C@H](C[C@@H](OC(=O)CCc3ccccc3)/C(CO)=C/[C@@H](OC(C)=O)[C@H]1O)[C@]2(C)CO` it is “inactive”.
For `CC(C)[C@@]1(O)C(=O)C[C@]2(C)C[C@]3(O)C(=CC(=O)[C@H]3C)[C@@H](C)CC[C@H]21`, the result in the experiment on Candida albicans [1] was inactive.
Turning to `CC1=C2C[C@@]3(C)CC(=O)[C@](O)(C(C)C)[C@@H]3CC[C@H](C)[C@@]2(O)CC1=O`, in the experiment on Candida albicans [1], the result was inactive.
Same read-out and setting: under `C=C1CC[C@@H](O)[C@]2(C)CC[C@H]3[C@@H]([C@@H]12)[C@@H](C(C)(C)O)CC[C@@H]3C` stands “inactive”; under `C=C1[C@@H](O)[C@@H]2[C@H](C[C@@H](O)/C(COC(=O)CCc3ccccc3)=C/[C@@H](O)[C@H]1OC(C)=O)[C@]2(C)CO`, “inactive”.
In the case of `CC(=O)OC/C1=C\[C@@H](O)[C@@H](OC(C)=O)/C(C)=C/[C@@H]2[C@H](C[C@H]1OC(=O)CCc1ccccc1)[C@]2(C)CO`, in the experiment with Candida albicans [1], the outcome was inactive.
Same read-out and setting: the entry for `CC(C)[C@@]1(O)C(=O)C[C@]2(C)CC3=C(C(=O)C[C@@]3(C)O)[C@@H](C)CC[C@H]21` is “inactive”; for `CC(C)[C@]1(O)C(=O)C[C@@]2(C)CC3=C([C@H](C)CC[C@@H]21)[C@H](O)CC3=O` it is “inactive”.
Turning to `C=C1CC[C@H]2[C@@H](/C=C(\C)CC[C@H]1O)[C@@H](C(C)(C)O)CC[C@@H]2C`, the outcome with Candida albicans [1] was inactive. The result with Candida albicans [2] was Active.
Regarding `CC(=O)O[C@@H]1/C=C(\CO)[C@H](OC(=O)CCc2ccccc2)C[C@H]2[C@@H](/C=C(\C)[C@@H]1O)[C@@]2(C)CO`, the result in the experiment on Candida albicans [1] was inactive.

The record behind these values is ChEMBL document CHEMBL4619771, “Terpenoids from the Liverwort Plagiochila fruticosa and Their Antivirulence Activity against Candida albicans” (2020).
